Measurements reported in patent publication US20250361268A1, “NOVEL ANTI-INFLAMMATORY PEPTIDE AND USE THEREOF” (NOVACELL TECHNOLOGY INC., priority 2022, published 2025).
Peptide text beside a SMILES is read from it.

What was measured:
FPR2 = molecular target: T1, FPR2 (Homo sapiens, UniProt P25090); test: Change in calcium activity by peptide (Fura-2) in RBL cells overexpressing FPR2; assay type: cell-based; settings: calcium activity (Fura-2), graded per Table 3, read-out: EC50 for [Ca^2+] FPR2
T1 construct: expressed in transfected cells; host or cells: RBL cells (RBL-FPR2)
T1 sequence (P25090 1-351): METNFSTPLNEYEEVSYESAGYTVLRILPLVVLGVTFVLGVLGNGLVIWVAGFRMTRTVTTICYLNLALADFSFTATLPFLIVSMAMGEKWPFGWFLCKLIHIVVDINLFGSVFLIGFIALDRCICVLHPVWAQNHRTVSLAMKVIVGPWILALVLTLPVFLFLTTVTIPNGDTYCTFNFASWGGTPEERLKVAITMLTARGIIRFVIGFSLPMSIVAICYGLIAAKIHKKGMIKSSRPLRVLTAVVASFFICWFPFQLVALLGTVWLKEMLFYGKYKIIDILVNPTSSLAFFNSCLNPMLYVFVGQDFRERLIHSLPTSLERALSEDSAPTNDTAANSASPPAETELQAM
Procedure: The present inventors observed changes in calcium ion permeability to confirm whether the immunomodulatory peptide candidates prepared according to one example of the present invention activate the immune function of a living organism. Specifically, the concentration of calcium ions in cells was measured to confirm whether the peptides activate FPR2.
A peptide dissolved in water or 50% DMSO at a concentration of 0.5 mM was prepared by diluting it to an appropriate concentration in HBSS (Sigma, #55037C)+20 mM HEPES buffer.
In this experiment, the cells were cultured in DMEM (Lonza, #BE12-604F) containing 10% fetal bovine serum (FBS) and 1% penicillin-streptomycin under conditions of 37° C. and 5% CO2.
(§1) The day before measuring calcium activity, the cells were prepared at 3×10^5 cells per well in a 96-well flat clear bottom black plate (Costar, #3603). The prepared cells were treated with a Fura-2 QBT calcium kit (component A; Molecular Devices, #8197) at the same volume per well. After incubation at 37° C. for 1 hour, the cells were incubated in a dark room at room temperature for 30 minutes. After the Fura-2-treated cells, the prepared peptide, and a dedicated tip were placed at each section of FlexStation 3 Multi-Mode Microplate Reader (Molecular Devices, #Flex3), changes in calcium activity caused by the peptides were measured using SoftMax Pro 7 Software (Molecular Devices, #FLEX3-INSTALL-OS).

FPR1 = molecular target: T2, FPR1 (Homo sapiens, UniProt P21462); test: Change in calcium activity by peptide, FPR1 activation effect; assay type: cell-based; settings: calcium activity (Fura-2), graded per Table 3, read-out: EC50 for [Ca^2+] FPR1
T2 sequence (P21462 1-350): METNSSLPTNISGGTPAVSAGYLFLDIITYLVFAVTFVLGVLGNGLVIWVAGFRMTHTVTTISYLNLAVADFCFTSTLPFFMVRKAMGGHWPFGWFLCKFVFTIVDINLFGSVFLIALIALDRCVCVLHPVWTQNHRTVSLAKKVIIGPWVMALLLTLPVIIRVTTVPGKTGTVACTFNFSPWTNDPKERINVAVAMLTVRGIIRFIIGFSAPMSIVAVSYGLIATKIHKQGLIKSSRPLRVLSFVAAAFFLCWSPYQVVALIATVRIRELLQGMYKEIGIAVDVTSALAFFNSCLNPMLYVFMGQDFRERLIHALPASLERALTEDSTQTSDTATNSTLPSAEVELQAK
Procedure: as §1, with “#FLEX3-INSTALL-OS). […]” for “#FLEX3-INSTALL-OS).”

EC50 (FPR2) | EC50 (FPR1) | SMILES
< 10 nM | > 10000 nM | CSCC[C@H](NC(=O)[C@H](Cc1c[nH]cn1)NC(C)=O)C(=O)N[C@@H](CCCNC(=N)N)C(=O)N[C@@H](Cc1ccc(O)cc1)C(=O)N[C@@H](CCCCN)C(=O)N1CCC[C@H]1C(=O)N[C@H](CCSC)C(N)=O [Peptide 59] (HELM PEPTIDE1{[ac].H.M.R.Y.K.P.[dM].[am]}$$$$V2.0)
< 10 nM | > 10000 nM | CCCC(=O)N[C@@H](Cc1c[nH]cn1)C(=O)N[C@@H](CCSC)C(=O)N[C@@H](CCCNC(=N)N)C(=O)N[C@@H](Cc1ccc(O)cc1)C(=O)N[C@@H](CCCCN)C(=O)N1CCC[C@H]1C(=O)N[C@H](CCSC)C(N)=O [Peptide 60] (HELM PEPTIDE1{[CCCC(=O)[*:2]].H.M.R.Y.K.P.[dM].[am]}$$$$V2.0)
< 10 nM | > 10000 nM | CCCCCCCC(=O)N[C@@H](Cc1c[nH]cn1)C(=O)N[C@@H](CCSC)C(=O)N[C@@H](CCCNC(=N)N)C(=O)N[C@@H](Cc1ccc(O)cc1)C(=O)N[C@@H](CCCCN)C(=O)N1CCC[C@H]1C(=O)N[C@H](CCSC)C(N)=O [Peptide 61] (HELM PEPTIDE1{[CCCCCCCC(=O)[*:2]].H.M.R.Y.K.P.[dM].[am]}$$$$V2.0)
< 10 nM | > 10000 nM | CSCC[C@H](NC(=O)[C@@H]1CCCN1)C(=O)N[C@@H](CCCNC(=N)N)C(=O)N[C@@H](Cc1ccc(O)cc1)C(=O)N[C@@H](CCCCN)C(=O)N1CCC[C@H]1C(=O)N[C@H](CCSC)C(N)=O [Peptide 62] (HELM PEPTIDE1{P.M.R.Y.K.P.[dM].[am]}$$$$V2.0)
< 10 nM | > 10000 nM | CSCC[C@H](NC(=O)[C@@H]1CCCN1C(C)=O)C(=O)N[C@@H](CCCNC(=N)N)C(=O)N[C@@H](Cc1ccc(O)cc1)C(=O)N[C@@H](CCCCN)C(=O)N1CCC[C@H]1C(=O)N[C@H](CCSC)C(N)=O [Peptide 63] (HELM PEPTIDE1{[ac].P.M.R.Y.K.P.[dM].[am]}$$$$V2.0)
< 10 nM | > 10000 nM | CCCC(=O)N1CCC[C@H]1C(=O)N[C@@H](CCSC)C(=O)N[C@@H](CCCNC(=N)N)C(=O)N[C@@H](Cc1ccc(O)cc1)C(=O)N[C@@H](CCCCN)C(=O)N1CCC[C@H]1C(=O)N[C@H](CCSC)C(N)=O [Peptide 64] (HELM PEPTIDE1{[CCCC(=O)[*:2]].P.M.R.Y.K.P.[dM].[am]}$$$$V2.0)
< 10 nM | > 10000 nM | CCCCCCCC(=O)N1CCC[C@H]1C(=O)N[C@@H](CCSC)C(=O)N[C@@H](CCCNC(=N)N)C(=O)N[C@@H](Cc1ccc(O)cc1)C(=O)N[C@@H](CCCCN)C(=O)N1CCC[C@H]1C(=O)N[C@H](CCSC)C(N)=O [Peptide 65] (HELM PEPTIDE1{[CCCCCCCC(=O)[*:2]].P.M.R.Y.K.P.[dM].[am]}$$$$V2.0)
11 to 100 nM | > 10000 nM | CSCC[C@H](NC(=O)[C@@H](N)CCCCN)C(=O)N[C@@H](CCCCN)C(=O)N[C@@H](Cc1ccc(O)cc1)C(=O)N[C@@H](CCCCN)C(=O)N1CCC[C@H]1C(=O)N[C@H](CCSC)C(N)=O [Peptide 66] (HELM PEPTIDE1{K.M.K.Y.K.P.[dM].[am]}$$$$V2.0)
< 10 nM | > 10000 nM | CSCC[C@H](NC(=O)[C@H](CCCCN)NC(C)=O)C(=O)N[C@@H](CCCCN)C(=O)N[C@@H](Cc1ccc(O)cc1)C(=O)N[C@@H](CCCCN)C(=O)N1CCC[C@H]1C(=O)N[C@H](CCSC)C(N)=O [Peptide 67] (HELM PEPTIDE1{[ac].K.M.K.Y.K.P.[dM].[am]}$$$$V2.0)
< 10 nM | > 10000 nM | CCCC(=O)N[C@@H](CCCCN)C(=O)N[C@@H](CCSC)C(=O)N[C@@H](CCCCN)C(=O)N[C@@H](Cc1ccc(O)cc1)C(=O)N[C@@H](CCCCN)C(=O)N1CCC[C@H]1C(=O)N[C@H](CCSC)C(N)=O [Peptide 68] (HELM PEPTIDE1{[CCCC(=O)[*:2]].K.M.K.Y.K.P.[dM].[am]}$$$$V2.0)

Further lines, the compound ahead of its results:

SMILES | EC50 (FPR2) | EC50 (FPR1)
CSCC[C@@H](NC(=O)[C@H](Cc1ccc(O)cc1)NC(=O)[C@H](CCCNC(=N)N)NC(=O)[C@H](Cc1ccc(O)cc1)NC(=O)[C@H](CCCNC(=N)N)NC(=O)[C@H](Cc1c[nH]c2ccccc12)NC(=O)[C@@H](N)CCCNC(=N)N)C(N)=O [Peptide 48] (HELM PEPTIDE1{R.W.R.Y.R.Y.[dM].[am]}$$$$V2.0) | 11 to 100 nM | > 10000 nM
CSCC[C@H](NC(C)=O)C(=O)N[C@@H](CCCNC(=N)N)C(=O)N[C@@H](Cc1ccc(O)cc1)C(=O)N[C@@H](CCCNC(=N)N)C(=O)N[C@@H](Cc1ccc(O)cc1)C(=O)N[C@H](CCSC)C(N)=O [Peptide 49] (HELM PEPTIDE1{[ac].M.R.Y.R.Y.[dM].[am]}$$$$V2.0) | 11 to 100 nM | > 10000 nM
CSCC[C@H](NC(=O)[C@@H](N)CCCNC(=N)N)C(=O)N[C@@H](CCCNC(=N)N)C(=O)N[C@@H](Cc1ccc(O)cc1)C(=O)N[C@@H](CCCCN)C(=O)N1CCC[C@H]1C(=O)N[C@H](CCSC)C(N)=O [Peptide 50] (HELM PEPTIDE1{R.M.R.Y.K.P.[dM].[am]}$$$$V2.0) | < 10 nM | > 10000 nM
CSCC[C@H](NC(=O)[C@H](CCCNC(=N)N)NC(C)=O)C(=O)N[C@@H](CCCNC(=N)N)C(=O)N[C@@H](Cc1ccc(O)cc1)C(=O)N[C@@H](CCCCN)C(=O)N1CCC[C@H]1C(=O)N[C@H](CCSC)C(N)=O [Peptide 51] (HELM PEPTIDE1{[ac].R.M.R.Y.K.P.[dM].[am]}$$$$V2.0) | < 10 nM | > 10000 nM
CCCC(=O)N[C@@H](CCCNC(=N)N)C(=O)N[C@@H](CCSC)C(=O)N[C@@H](CCCNC(=N)N)C(=O)N[C@@H](Cc1ccc(O)cc1)C(=O)N[C@@H](CCCCN)C(=O)N1CCC[C@H]1C(=O)N[C@H](CCSC)C(N)=O [Peptide 52] (HELM PEPTIDE1{[CCCC(=O)[*:2]].R.M.R.Y.K.P.[dM].[am]}$$$$V2.0) | < 10 nM | > 10000 nM
CCCCCCCC(=O)N[C@@H](CCCNC(=N)N)C(=O)N[C@@H](CCSC)C(=O)N[C@@H](CCCNC(=N)N)C(=O)N[C@@H](Cc1ccc(O)cc1)C(=O)N[C@@H](CCCCN)C(=O)N1CCC[C@H]1C(=O)N[C@H](CCSC)C(N)=O [Peptide 53] (HELM PEPTIDE1{[CCCCCCCC(=O)[*:2]].R.M.R.Y.K.P.[dM].[am]}$$$$V2.0) | < 10 nM | > 10000 nM
CSCC[C@H](N)C(=O)N[C@@H](CCCNC(=N)N)C(=O)N[C@@H](Cc1ccc(O)cc1)C(=O)N[C@@H](CCCCN)C(=O)N1CCC[C@H]1C(=O)N[C@H](CCSC)C(N)=O [Peptide 54] (HELM PEPTIDE1{M.R.Y.K.P.[dM].[am]}$$$$V2.0) | < 10 nM | > 10000 nM
CCCC(=O)N[C@@H](CCSC)C(=O)N[C@@H](CCCNC(=N)N)C(=O)N[C@@H](Cc1ccc(O)cc1)C(=O)N[C@@H](CCCCN)C(=O)N1CCC[C@H]1C(=O)N[C@H](CCSC)C(N)=O [Peptide 56] (HELM PEPTIDE1{[CCCC(=O)[*:2]].M.R.Y.K.P.[dM].[am]}$$$$V2.0) | < 10 nM | > 10000 nM
CCCCCCCC(=O)N[C@@H](CCSC)C(=O)N[C@@H](CCCNC(=N)N)C(=O)N[C@@H](Cc1ccc(O)cc1)C(=O)N[C@@H](CCCCN)C(=O)N1CCC[C@H]1C(=O)N[C@H](CCSC)C(N)=O [Peptide 57] (HELM PEPTIDE1{[CCCCCCCC(=O)[*:2]].M.R.Y.K.P.[dM].[am]}$$$$V2.0) | < 10 nM | > 10000 nM
CSCC[C@H](NC(=O)[C@@H](N)Cc1c[nH]cn1)C(=O)N[C@@H](CCCNC(=N)N)C(=O)N[C@@H](Cc1ccc(O)cc1)C(=O)N[C@@H](CCCCN)C(=O)N1CCC[C@H]1C(=O)N[C@H](CCSC)C(N)=O [Peptide 58] (HELM PEPTIDE1{H.M.R.Y.K.P.[dM].[am]}$$$$V2.0) | < 10 nM | > 10000 nM
